Structures can show the parent of a compound that is named as a salt. Where two headings read alike, the source gives them in different places.
Assays:
A. baumannii = assay: MIC, 96-well CAMHB, 10^5 to 10^2 CFU/mL in 24 hours; type: cell-based, Acinetobacter baumannii; details: Acinetobacter baumannii, read-out: MIC (A. bumannii)
Protocol: (§1) To determine the MIC of polyamine compounds, the protocol described herein was used.
(§2) In brief, a 0.5 McFarland of each bacterial isolate was made. A 0.5 McFarland is a measure of turbidity in a liquid sample that contains approximately 1×10^∧8 CFU/mL. The 0.5 McFarland standard was diluted in cation adjusted Mueller Hinton Broth (CAMHB), and 50 μL of broth were added to a well of a 96-well plate. In addition, 50 μL of CAMHB that contained a desired concentration of antimicrobial were also added to the well for a final volume of 100 μL and a final concentration of approximately 5×10^4 CFU/well (which equated to approximately 5×10^5 CFU/mL). Each well contained a desired amount of polyamine compound in order to experimentally determine the MIC. Each 96-well plate was incubated at 37° C. for 24 hours. The contents of each well were plated on tryptic soy agar (TSA). TSA plates were incubated for 37° C. for 24 hours after which the number of CFU were counted and used to calculate the CFU/mL that remained after exposure to varying concentrations of compound. This procedure was repeated n=8 times for each concentration of antimicrobial.
A 0.5 McFarland of A. baumannii is made. A 0.5 McFarland is a measure of turbidity in a liquid sample that contains approximately 7.5×10^7 CFU/mL. The 0.5 McFarland standard is diluted in CAMHB and 50 μL of broth is added to a well of a 96-well plate. In addition, 50 μL of CAMHB that contains a desired concentration of antimicrobial is added to the well for a final volume of 100 μL and a final concentration of approximately 5×10^4 CFU/well (which equates to approximately 5×10^5 CFU/mL). Each well contains a desired amount of CZ compound in order to experimentally determine the MIC. Each 96-well plate is incubated at 37° C. for 24 hours. The contents of each well is plated on tryptic soy agar (TSA). TSA plates is incubated at 37° C. for 24 hours after which the number of CFUs is counted and used to calculate the CFU/mL that remain after exposure to varying concentrations of compound. This procedure is repeated n=8 times for each concentration of antimicrobial. […]

MRSA = assay: as above; type: cell-based, Staphylococcus aureus; details: Staphylococcus aureus, MRSA, read-out: MIC (MRSA)
Protocol: as §1
as §2, with “antimicrobial. […]” for “antimicrobial.”

P. aeruginosa = assay: as above; type: cell-based, Pseudomonas aeruginosa; details: Pseudomonas aeruginosa
Protocol: as §1, §2

L-929 cells (ATCC CCL-1) = assay: Minimal Essential Media (MEM) Elution cytotoxicity test; type: cell-based
Protocol: Summary: The Minimal Essential Media (MEM) Elution test was designed to determine the cytotoxicity of extractable substances. The test article was added to cell monolayers and incubated. The cell monolayers were examined and scored based on the degree of cellular destruction.
Acceptance Criteria: The United States Pharmacopeia & National Formulary (USP <87>) states that the test article meets the requirements, or receives a passing score (Pass) if the reactivity grade is not greater than grade 2 or a mild reactivity.
Acceptance criteria were based upon the negative and media controls receiving “0” reactivity grades and positive controls receiving a 3-4 reactivity grades (moderate to severe).
The cell monolayers were examined microscopically. The wells were scored as to the degree of discernable morphological cytotoxicity on a relative scale of 0 to 4:
The results from the three wells were averaged to give a final cytotoxicity score.
[…] This initial concentration was then diluted 1: 2, 1:4, 1:8, and 1:16. Multiple well cell culture plates were seeded with a verified quantity of industry standard L-929 cells (ATCC CCL-1) and incubated until approximately 80% confluent. The test articles and control extracts were added to the cell monolayers in triplicate. The cells were incubated at 37±1° C. with 5±1% CO2 for 48±3 hours.

[1] = Table 5, read-out: MIC (P. aeruginosa)
[2] = read-out: MIC (P. aeruginosa), Table 5
[3] = Table 10A, dilution 1:2 of 25 μg/mL
[4] = Table 10A, dilution 1:4 of 25 μg/mL
[5] = Table 10A, dilution 1:8 of 25 μg/mL
[6] = Table 10A, dilution 1:16 of 25 μg/mL

NCCCNCCCNCc1cc(CNCCCNCCCN)cc(CNCCCNCCCN)c1 [CZ-55]
MIC (A. baumannii; Table 5): > 100 µM | MIC (MRSA; Table 5): < 50 µM | MIC (P. aeruginosa; [1]): < 50 µM

NCCCNCCCNCc1cc(CNCCCNCCCN)cc(-c2ccc3c(c2)OCO3)c1 [CZ-61, N^1,N^1′-((5-(benzo[d][1,3]dioxol-5-yl)-1,3-phenylene)bis(methylene))bis(N^3-(3-ammoniopropyl)propane-1,3-diaminium) chloride]
MIC (A. baumannii): < 50 µM

CCCCC(CC)COc1cc(CNCCCNCCCN)cc(CNCCCNCCCN)c1 (stereo not drawn) [CZ-81, N^1,N^1′-((5-((2-ethylhexyl)oxy)-1,3-phenylene)bis(methylene))bis(N^3-(3-aminopropyl)propane-1,3-diamine), hydrochloride salt]
MIC (A. baumannii): < 50 µM | MIC (MRSA): < 50 µM | MIC (P. aeruginosa; [2]): < 50 µM

NCCCNCCCNCCCNCc1cc(CNCCCNCCCNCCCN)cc(-c2ccccc2)c1 [CZ-73, N^1,N^1′-([1,1′-biphenyl]-3,5-diylbis(methylene))bis(N^3-(3-((3-aminopropyl)amino)propyl)propane-1,3-diamine), hydrochloride salt]
MIC (A. baumannii): 50 to 100 µM

NCCCNCCCNCc1cc(CNCCCNCCCN)cc(-c2c(CNCCCNCCCN)cccc2CNCCCNCCCN)c1 [CZ-60]
MIC (A. baumannii; Table 5): > 100 µM | MIC (MRSA; Table 5): < 50 µM | MIC (P. aeruginosa; [1]): > 100 µM

NCCCNCCCNCc1ccc(-c2cc(CNCCCNCCCN)cc(CNCCCNCCCN)c2)cc1 [CZ-65, N^1,N^1′,N^1″-([1,1′-biphenyl]-3,4′,5-triyltris(methylene))tris(N^3-(3-aminopropyl)propane-1,3-diamine), hydrochloride salt]
MIC (A. baumannii): < 50 µM | Results Pass/Fail (L-929 cells (ATCC CCL-1); Table 10A, 25 μg/mL): Fail (a numerical grade greater than 2 is considered a cytotoxic effect, or a failing score (Fail)) | Results Pass/Fail (L-929 cells (ATCC CCL-1); [3]): Fail (a numerical grade greater than 2 is considered a cytotoxic effect, or a failing score (Fail)) | Results Pass/Fail (L-929 cells (ATCC CCL-1); [4]): Pass (receives a passing score (Pass) if the reactivity grade is not greater than grade 2 or a mild reactivity) | Results Pass/Fail (L-929 cells (ATCC CCL-1); [5]): Pass (receives a passing score (Pass) if the reactivity grade is not greater than grade 2 or a mild reactivity) | Results Pass/Fail (L-929 cells (ATCC CCL-1); [6]): Pass (receives a passing score (Pass) if the reactivity grade is not greater than grade 2 or a mild reactivity)

CCCCNCCCNCCCNCc1cc(CNCCCNCCCNCCCC)cc(-c2ccccc2)c1 [CZ-83, N^1,N^1′-([1,1′-biphenyl]-3,5-diylbis(methylene))bis(N^3-(3-(butylamino)propyl)propane-1,3-diamine), hydrochloride salt]
MIC (A. baumannii): < 50 µM | MIC (MRSA): < 50 µM | MIC (P. aeruginosa; [2]): < 50 µM

CCCCCCCCNCCCNCCCNCc1cc(CNCCCNCCCNCCCCCCCC)cc(OCC2CCCCC2)c1 [CZ-103, N^1,N^1′-((5-(cyclohexylmethoxy)-1,3-phenylene)bis(methylene))bis(N^3-(3-(octylamino)propyl)propane-1,3-diamine)]
MIC (A. baumannii; Table 5): < 50 µM | MIC (MRSA; Table 5): < 50 µM | MIC (P. aeruginosa; [1]): < 50 µM

NCCCNCCCNCc1cccc(-c2cc(CNCCCNCCCN)cc(CNCCCNCCCN)c2)c1 [CZ-62, N^1,N^1′,N^1″-([1,1′-biphenyl]-3,3′,5-triyltris(methylene))tris(N^3-(3-aminopropyl)propane-1,3-diamine), hydrochloride salt]
MIC (A. baumannii): < 50 µM | Results Pass/Fail (L-929 cells (ATCC CCL-1); Table 10A, 25 μg/mL): Fail (a numerical grade greater than 2 is considered a cytotoxic effect, or a failing score (Fail)) | Results Pass/Fail (L-929 cells (ATCC CCL-1); [3]): Fail (a numerical grade greater than 2 is considered a cytotoxic effect, or a failing score (Fail)) | Results Pass/Fail (L-929 cells (ATCC CCL-1); [4]): Fail (a numerical grade greater than 2 is considered a cytotoxic effect, or a failing score (Fail)) | Results Pass/Fail (L-929 cells (ATCC CCL-1); [5]): Pass (receives a passing score (Pass) if the reactivity grade is not greater than grade 2 or a mild reactivity) | Results Pass/Fail (L-929 cells (ATCC CCL-1); [6]): Pass (receives a passing score (Pass) if the reactivity grade is not greater than grade 2 or a mild reactivity)

Cc1ccccc1-c1cc(CNCCCNCCCN)cc(CNCCCNCCCN)c1 [CZ-63, N^1,N^1′-((2′-methyl-[1,1′-biphenyl]-3,5-diyl)bis(methylene))bis(N^3-(3-aminopropyl)propane-1,3-diamine), hydrochloride salt]
MIC (A. baumannii): < 50 µM

NCCCCCCCCCCCCNCc1cccc(CNCCCCCCCCCCCCN)c1 [CZ-21, N^1,N^1′-(1,3-phenylenebis(methylene))bis(dodecane-1,12-diamine), hydrochloride salt]
MIC (A. baumannii): > 100 µM | MIC (MRSA): < 50 µM

CCCCCCCCNCCCNCCCNCc1cc(CNCCCNCCCNCCCCCCCC)cc(-c2ccccc2)c1 [CZ-92, N^1,N^1′-([1,1′-biphenyl]-3,5-diylbis(methylene))bis(N^3-(3-(octylamino)propyl)-propane-1,3-diamine)]
Results Pass/Fail (L-929 cells (ATCC CCL-1); Table 11A, 25 μg/mL): Fail (a numerical grade greater than 2 is considered a cytotoxic effect, or a failing score (Fail)) | Results Pass/Fail (L-929 cells (ATCC CCL-1); Table 11A, dilution 1:2 of 25 μg/mL): Fail (a numerical grade greater than 2 is considered a cytotoxic effect, or a failing score (Fail)) | Results Pass/Fail (L-929 cells (ATCC CCL-1); Table 11A, dilution 1:4 of 25 μg/mL): Fail (a numerical grade greater than 2 is considered a cytotoxic effect, or a failing score (Fail)) | Results Pass/Fail (L-929 cells (ATCC CCL-1); Table 11A, dilution 1:8 of 25 μg/mL): Fail (a numerical grade greater than 2 is considered a cytotoxic effect, or a failing score (Fail)) | Results Pass/Fail (L-929 cells (ATCC CCL-1); Table 11A, dilution 1:16 of 25 μg/mL): Pass (receives a passing score (Pass) if the reactivity grade is not greater than grade 2 or a mild reactivity) | MIC (MRSA; Table 5): < 50 µM | MIC (P. aeruginosa; [1]): < 50 µM

From patent US10440955B2, “Methods comprising a biocidal polyamine” (Curza Global, LLC, priority 2013, dated 2019)
